Read-outs that look alike come from different tables or passages of the source.

Data set [1] can be described thus: Pharmacokinetic study in Beagle dogs. The class given is in vivo. Particulars: both sexes, dog, plasma, Beagles. As for the experimental part: (4) Pharmacokinetic Study in Beagle Dogs
Objective: To determine the concentration of the test compound in plasma at various time points after intravenous and intragastric administration in male and female Beagle dogs using the LC/MS/MS method.
An appropriate amount of the sample was weighed and prepared into 0.2 mg/mL and 0.3 mg/mL solutions, stirred until a clear solution was obtained, with 20% SBE-β-CD as the vehicle.
Administration: After an overnight fast, the IV group received intravenous administration at a dose of 0.3 mg/kg; the PO group received intragastric administration at a dose of 1 mg/kg.
For the intravenous injection group, Beagle dogs were administered the test compound, and blood samples (800 μL) were collected from the peripheral vein at 0.25, 0.5, 1, 2, 4, 6, 8, 24, 32, 48, 72, and 96 hours post-administration. The samples were placed into commercially available anticoagulant tubes pre-filled with EDTA-K2. For the intragastric administration group, after administering the test compound, blood samples (800 μL) were collected from the peripheral vein at 0.25, 0.5, 1, 2, 4, 6, 8, 24, 32, 48, 72, and 96 hours. These samples were also placed into commercially available anticoagulant tubes pre-filled with EDTA-K2. Following centrifugation (3,200 g, 2-8° C., 10 minutes), the plasma was transferred to pre-chilled centrifuge tubes, flash-frozen in dry ice, and stored in an ultra-low temperature freezer at −60° C. or lower until LC-MS/MS analysis. Animals were allowed to eat 4 hours post-dosing. The concentration of the test compound in the plasma of Beagle dogs after intravenous and intragastric administration was determined using the LC/MS/MS method.

A short description of data set [2]: Pharmacokinetic study in rats. Particulars: both sexes, Sprague-Dawley, rat, plasma. It is filed as in vivo. The procedure: (3) Pharmacokinetic Study in Rats
Objective: To determine the concentration of the test compound in plasma at various time points after intravenous and intragastric administration in male and female Sprague-Dawley rats using the LC/MS/MS method.
An appropriate amount of the sample was weighed and prepared into a 0.2 mg/ml solution, and stirred until a clear solution was obtained, with 20% SBE-β-CD as the vehicle.
Administration: After an overnight fast, the IV group received intravenous administration at a dose of 1 mg/kg; the PO group received intragastric administration at a dose of 2 mg/kg.
For the intravenous injection group, male and female Sprague-Dawley rats were administered the test compound, and blood samples (200 μL) were collected from the jugular vein at 0.0830, 0.250, 0.500, 1.00, 2.00, 4.00, 6.00, 8.00, 24.0, 32.0, and 48.0 hours post-administration. The samples were placed into commercially available anticoagulant tubes pre-filled with EDTA-K2. For the intragastric administration group, after administering the test compound, blood samples (200 μL) were collected from the jugular vein at 0.250, 0.500, 1.00, 2.00, 4.00, 6.00, 8.00, 24.0, 32.0, and 48.0 hours. These samples were also placed into commercially available anticoagulant tubes pre-filled with EDTA-K2. Following centrifugation (3,200 g, 4° C., 10 minutes), the plasma was transferred to pre-chilled centrifuge tubes, flash-frozen in dry ice, and stored in an ultra-low temperature freezer at −60° C. or lower until LC-MS/MS analysis. Animals were allowed to eat 4 hours post-dosing. The concentration of the test compound in the plasma of rats after intravenous and intragastric administration was determined using the LC/MS/MS method.

Data set [3] has as its system human breast cancer MCF-7 cell subcutaneous xenograft tumor. The class given is in vivo. Particulars: for Tumor volume (mm^3) (Day 0): Day 0 (at grouping); for RTV (Day 21) / Tumor volume (mm^3) (Day 21) / T/C (%) / TGI (%): Day 21. The procedure: (1) In Vivo Pharmacodynamic Study of Breast Cancer MCF-7 Cell Subcutaneous Xenograft Tumor BALB/c Nude Mouse Model
Objective: This study aimed to evaluate the in vivo efficacy of the crystal form C of the compound of formula (I) using a human breast cancer MCF-7 cell subcutaneous xenograft tumor model in nude mice.
Routine digestion with trypsin-EDTA (Gibco) was performed twice a week for passaging.
Cell inoculation: Estrogen pellets (0.36 mg/pellet; IRA) were subcutaneously inoculated into the left dorsum of each mouse. Three days later, 0.2 mL (1×10^7 cells) of MCF-7 cells (mixed with Matrigel; CORNING, volume ratio 1:1) were subcutaneously inoculated into the right dorsum of each mouse. When the average tumor volume reached 188 mm^3, the mice were grouped and the administration of compounds began.
An appropriate amount of the compound of formula (I) was weighed and prepared into 0.1, 0.3, 1, and 3 mg/mL solutions. […] Fulvestrant was used as the commercially available injection Faslodex.
The antitumor efficacy of the compounds was evaluated using Tumor Growth Inhibition (TGI, %) and relative tumor proliferation rate (T/C, %).
The Q value of combined medication index was calculated using the Jin formula. The criteria for judgment were as follows: a Q value of 0.85 to 1.15 indicated […] (+); a Q value>1.15 to 2.0 indicated enhancement (++); a Q value<0.85 to 0.55 indicated antagonism (−); and a Q value<0.55 indicated significant antagonism (−−). The formula was Q=Ea+b/(Ea+Eb−Ea×Eb), where Ea+b was the tumor inhibition rate of the combined medication group, and Ea and Eb were the tumor inhibition rates of the single medication groups, respectively.
Inter-group comparisons were analyzed using one-way ANOVA. […] A p value<0.05 was considered to indicate a significant difference.

Data set [4] can be described thus: Pharmacokinetic study in mice. The class given is in vivo. Particulars: female, Balb/c, mouse, plasma. The procedure:
(2) Pharmacokinetic Study in Mice
Objective: To determine the concentration of the test compound in plasma at various time points after intravenous and intragastric administration in female Balb/c mice using the LC/MS/MS method. To investigate the pharmacokinetic behavior of the crystal form C of the compound of formula (I) in mice and to evaluate its pharmacokinetic characteristics.
Administration: After an overnight fast, the IV group received intravenous administration at a dose of 5 mg/kg; the PO group received intragastric administration at a dose of 10 mg/kg.
For the intravenous injection group, female Balb/c mice were administered the test compound, and blood samples (30 μL) were collected from the saphenous vein at 0.0833, 0.25, 0.5, 1, 2, 4, 8, and 24 hours post-administration. The samples were placed into commercially available anticoagulant tubes pre-filled with EDTA-K2. For the intragastric administration group, after administering the test compound, blood samples (30 μL) were collected from the jugular vein at 0.25, 0.5, 1, 2, 4, 8, 12, and 24 hours. These samples were also placed into commercially available anticoagulant tubes pre-filled with EDTA-K2. Following centrifugation (3,200 g, 4° C., 10 minutes), the plasma was transferred to pre-chilled centrifuge tubes, flash-frozen in dry ice, and stored in an ultra-low temperature freezer at −60° C. or lower until LC-MS/MS analysis. Animals were allowed to eat 4 hours post-dosing. The concentration of the test compound in the plasma of mice after intravenous and intragastric administration was determined using the LC/MS/MS method.

For data set [5] the following is noted: in vivo; cited from earlier work.
The subject of a further data set is breast cancer. The following applies: intramuscular injection; cited from earlier work.

In data set [1] (IV, 0.3 mg/kg), `CS(=O)(=O)O.FCCCN1CC[C@H](Nc2cnc(C3=C(CC(F)(F)F)CCCc4c3ccc3[nH]nc(F)c43)cn2)C1` had an AUC(0-t) of 1.31 µM·h, a clearance of 3.8 mL/min/kg and a half-life of 24.2 h. In data set [1] (IV, 0.3 mg/kg, read-out: Vdss), the Vd amounted to 7.48 L/kg. In data set [1] (PO, 1 mg/kg), this compound showed an AUC(0-t) of 2.27 µM·h, a peak concentration (Cmax) of 61 nM, a bioavailability of 52% and a half-life of 21.6 h. In data set [2] (IV, 1 mg/kg), the AUC(0-t) is 1.71 µM·h, the clearance was 22.1 mL/min/kg and the half-life was 10.6 h. Moreover, the Vd in data set [2] (IV, 1 mg/kg, read-out: Vdss) turned out to be 13.6 L/kg. In data set [2] (PO, 2 mg/kg), this compound gave an AUC(0-t) of 1.63 µM·h, a Cmax of 87.7 nM, a bioavailability of 47.7% and a half-life of 10.3 h.
For `FCCCN1CC[C@H](Nc2cnc(C3=C(CC(F)(F)F)CCCc4c3ccc3[nH]nc(F)c43)cn2)C1`, in data set [3] (1 mg/kg, PO, QD), the ORR % is recorded as 0%, the “Tumor volume (mm^3) (Day 0)” value worked out at 188 ± 12 mm^3, the “RTV (Day 21)” value is given as 1.82 ± 0.12 and the “Tumor volume (mm^3) (Day 21)” value is 340 ± 30 mm^3. Moreover, in data set [3] (3 mg/kg, PO, QD), the DCR % is 100%, the ORR % worked out at 0%, the “Tumor volume (mm^3) (Day 0)” value turned out to be 188 ± 13 mm^3 and the “RTV (Day 21)” value was 0.99 ± 0.11. The “Tumor volume (mm^3) (Day 21)” value in data set [3] (3 mg/kg, PO, QD) is given as 179 ± 14 mm^3. Besides, in data set [3] (10 mg/kg, PO, QD), the “Tumor volume (mm^3) (Day 0)” value was 188 ± 12 mm^3, the “RTV (Day 21)” value amounted to 0.75 ± 0.09 and the “Tumor volume (mm^3) (Day 21)” value stood at 140 ± 18 mm^3. Further, in data set [3] (30 mg/kg, PO, QD), the “Tumor volume (mm^3) (Day 0)” value came to 188 ± 12 mm^3, the “RTV (Day 21)” value came to 0.64 ± 0.07 and the “Tumor volume (mm^3) (Day 21)” value was 121 ± 13 mm^3. The “Tolerability in tumor-bearing mice” value in data set [3] (1 to 30 mg/kg, PO, QD) is “tolerated the crystal form C of the compound of formula (I) well”. In data set [4] (IV, 5 mg/kg), this compound showed an AUC(0-t) of 5.27 µM·h, a clearance of 30.2 mL/min/kg and a half-life of 5.16 h. Also, the Vd in data set [4] (IV, 5 mg/kg, read-out: Vdss) was 11.1 L/kg. Also, in data set [4] (PO, 10 mg/kg), the AUC(0-t) amounted to 5.86 µM·h, the peak level (Cmax) was 779 nM, the bioavailability was 55.4% and the half-life was 4.72 h.
For the compound `C[C@]12CC[C@@H]3c4ccc(O)cc4C[C@@H](CCCCCCCCC[S+]([O-])CCCC(F)(F)C(F)(F)F)[C@H]3[C@@H]1CC[C@@H]2O` (stereo partly drawn) [Fulvestrant, reference compound], in data set [5], the oral bioavailability entry is given as “near-zero”. For the same compound, the “breast cancer patients showing a clinical response” value in the data set with breast cancer was “about 50%”. Further, in data set [3] (5 mg/mouse, SC, QW), the DCR % worked out at 0%, the “Tumor volume (mm^3) (Day 0)” value is 188 ± 12 mm^3, the “RTV (Day 21)” value was determined as 3.12 ± 0.31 and the “T/C (%)” value is on record as 46.9%. Besides, in data set [3] (5 mg/mouse, SC, QW), the “TGI (%)” value turned out to be 60.9% and the “Tumor volume (mm^3) (Day 21)” value is 593 ± 79 mm^3. Moreover, in data set [3] (5 mg/mouse, SC, QW, listed as fulvestrant), the “Tumor volume (mm^3) (Day 21)” value stood at 593 mm^3.
For the compound `CC(=O)c1c(C)c2cnc(Nc3ccc(N4CCNCC4)cn3)nc2n(C2CCCC2)c1=O` [Palbociclib, reference compound], in data set [3] (25 mg/kg, PO, QD), the DCR % is 12.5%, the ORR % stood at 0%, the “Tumor volume (mm^3) (Day 0)” value is 188 ± 12 mm^3 and the “RTV (Day 21)” value is given as 4.26 ± 0.51. In addition, in data set [3] (25 mg/kg, PO, QD), the “T/C (%)” value was determined as 64.0%, the “TGI (%)” value was 42.8% and the “Tumor volume (mm^3) (Day 21)” value was determined as 781 ± 77 mm^3. Besides, the “Tumor volume (mm^3) (Day 21)” value in data set [3] (25 mg/kg, PO, QD, listed as palbociclib) is reported as 781 mm^3.

Source of the values: patent US12410155B2, “Salt form and crystal form of tetrahydrocyclohepta indazole compound” (Zhejiang Yangli Pharmaceutical Technology Co., Ltd., priority 2021, dated 2025).
